From patent US20240316047A1, “INHIBITORS OF RNA HELICASE DHX9 AND USES THEREOF” (ACCENT THERAPEUTICS, INC., priority 2022, published 2024)

Biological target: Human recombinant DHX9 protein (Homo sapiens (Human), UniProt Q08211)
Assay: DHX9 ATPase assay (ADP-Glo)
Format: biochemical
Details: for IC50: read-out: DHX9 Biochemical Inflection Point

Human recombinant DHX9 protein, sequence (Q08211 whole entry): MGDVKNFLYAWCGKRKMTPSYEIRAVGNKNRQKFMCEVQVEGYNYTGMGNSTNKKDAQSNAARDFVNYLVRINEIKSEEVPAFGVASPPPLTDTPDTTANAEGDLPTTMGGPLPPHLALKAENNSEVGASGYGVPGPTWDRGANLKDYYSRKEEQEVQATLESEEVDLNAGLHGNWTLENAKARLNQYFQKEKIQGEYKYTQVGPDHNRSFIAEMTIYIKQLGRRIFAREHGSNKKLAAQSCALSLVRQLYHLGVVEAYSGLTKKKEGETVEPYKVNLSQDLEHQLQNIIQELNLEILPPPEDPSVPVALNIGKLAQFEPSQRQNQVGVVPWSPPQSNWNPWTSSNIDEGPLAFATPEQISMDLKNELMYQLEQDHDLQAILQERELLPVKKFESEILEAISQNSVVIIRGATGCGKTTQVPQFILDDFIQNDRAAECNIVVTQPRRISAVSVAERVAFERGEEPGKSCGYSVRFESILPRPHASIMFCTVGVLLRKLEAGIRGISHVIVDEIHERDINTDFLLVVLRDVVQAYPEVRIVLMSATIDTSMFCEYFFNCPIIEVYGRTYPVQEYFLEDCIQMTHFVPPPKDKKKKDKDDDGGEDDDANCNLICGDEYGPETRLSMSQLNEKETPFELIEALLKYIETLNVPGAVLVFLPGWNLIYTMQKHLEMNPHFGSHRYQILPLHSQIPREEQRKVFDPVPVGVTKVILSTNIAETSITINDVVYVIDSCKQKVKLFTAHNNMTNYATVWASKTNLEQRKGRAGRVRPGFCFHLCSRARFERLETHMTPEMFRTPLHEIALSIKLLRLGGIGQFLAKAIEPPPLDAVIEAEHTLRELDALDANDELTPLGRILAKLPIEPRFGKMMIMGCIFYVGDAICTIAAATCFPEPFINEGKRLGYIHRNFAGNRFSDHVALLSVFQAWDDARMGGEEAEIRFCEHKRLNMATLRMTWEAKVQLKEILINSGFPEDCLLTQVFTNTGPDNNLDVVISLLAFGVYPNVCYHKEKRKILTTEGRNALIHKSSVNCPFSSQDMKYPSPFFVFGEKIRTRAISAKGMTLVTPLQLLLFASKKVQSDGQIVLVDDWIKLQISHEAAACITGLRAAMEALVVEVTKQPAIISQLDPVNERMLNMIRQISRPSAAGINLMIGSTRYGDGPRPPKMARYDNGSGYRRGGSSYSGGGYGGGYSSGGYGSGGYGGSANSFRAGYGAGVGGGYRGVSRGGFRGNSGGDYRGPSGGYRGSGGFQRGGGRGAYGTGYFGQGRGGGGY

| SMILES | DHX9 Biochemical Max Inhibition | IC50 [nM] |
| --- | --- | --- |
| CS(=O)(=O)Nc1cc(Cl)cc(NC(=O)c2cc(-c3ccc(F)cn3)n(S(C)(=O)=O)c2)c1 [Example 701] | 66.9 | 115 |
| Cc1cc(C(=O)Nc2cc(Cl)cc(NS(C)(=O)=O)c2)cn1-c1ncccc1OCc1nccs1 [Example 280] | 76.3% | 326 |
| Cc1sc(C(=O)Nc2cc(Cl)cc(NS(C)(=O)=O)c2)cc1-c1ncc(OC2CNC2)cn1 [Example 636, 4-[5-(azetidin-3-yloxy)pyrimidin-2-yl]-N-(3-chloro-5-methanesulfonamidophenyl)-5-methylthiophene-2-carboxamide] | 70.3 | 12.2 |
| Cc1sc(C(=O)Nc2cc(Cl)cc(NS(C)(=O)=O)c2)cc1-c1ncc(P(C)(C)=O)cn1 [Example 648] | 69.1 | 6.9 |
| Cn1cc(C(=O)Nc2cc(Cl)cc(NS(=O)(=O)CCO)c2)cc1-c1ncc(F)cc1F [Example 581] | 50.5 | 99.1 |
| CS(=O)(=O)Nc1cc(Cl)cc(NC(=O)c2cn(-c3ccccc3)cn2)c1 [Example 1, N-(3-chloro-5-(methylsulfonamido)phenyl)-1-phenyl-1H-imidazole-4-carboxamide] | 48.3% | 320 |
| Cc1cc(C(=O)Nc2cc(Cl)cc(NS(C)(=O)=O)c2)cn1-c1ccc(N2CCOC2=O)cn1 [Example 416] | 81.8 | 13.5 |
| COCc1sc(C(=O)Nc2cc(Cl)cc(NS(C)(=O)=O)c2)cc1-c1ccccn1 [Example 234] | 84.6% | 9.5 |
| CS(=O)(=O)Nc1cc(Cl)cc(NC(=O)c2cnn(-c3cnc(N4CCOCC4)cn3)c2)c1 [Example 388] | 52.8% | 381 |
| CS(=O)(=O)Nc1cc(Cl)cc(NC(=O)c2cnn(-c3cc(N4CCOCC4)ccn3)c2)c1 [Example 91] | 59.7% | 27.9 |
| CS(=O)(=O)Nc1cc(F)cc(NC(=O)c2cc(Br)cs2)c1 [Example 71, 4-bromo-N-(3-fluoro-5-(methylsulfonamido)phenyl)thiophene-2-carboxamide] | 77.8% | 171 |
| CS(=O)(=O)Nc1cc(Cl)cc(NC(=O)c2cc(C3CCNCC3)cs2)c1 [Example 243] | 73.2% | 92.3 |
| CS(=O)(=O)Nc1cc(Cl)cc(NC(=O)c2c[nH]c(-c3ncc(F)cc3F)c2)c1 [Example 560] | 59 | 51 |
| CS(=O)(=O)Nc1cc(Cl)cc(NC(=O)c2cnn(-c3ncccc3OCc3cn[nH]c3)c2)c1 [Example 206] | 74.9% | 16.8 |
| CS(=O)(=O)Nc1cc(Cl)cc(NC(=O)c2cc(-c3ncc(F)cn3)n(C3CC3)c2)c1 [Example 712] | 74.2 | 56.2 |
| CS(=O)(=O)Nc1cc(Cl)cc(NC(=O)c2cc(-c3ncc(N4CC(F)(F)C4)cc3F)cs2)c1 [Example 488] | 61.1 | 67.9 |
| Cc1sc(C(=O)Nc2cc(Br)cc(NS(C)(=O)=O)c2)cc1-c1ccccn1 [Example 23] | 69% | 3.2 |
| COc1cnc(-n2cc(C(=O)Nc3cc(Cl)cc(NS(C)(=O)=O)c3)cc2C)nc1 [Example 441] | 72.6 | 26.5 |
| Cc1sc(C(=O)Nc2cc(Cl)cc(NS(C)(=O)=O)c2)cc1-c1ncccc1OCc1ccccc1 [Example 34] | 75.2% | 6.3 |

| SMILES | DHX9 Biochemical Max Inhibition | IC50 [nM] |
| --- | --- | --- |
| Cc1cc(C(=O)Nc2cc(Cl)cc(NS(C)(=O)=O)c2)cn1-c1ncccn1 [Example 59] | 77.5% | 12.7 |
| CS(=O)(=O)Nc1cc(Cl)cc(NC(=O)c2cc(-c3ncccc3CC(=O)N3CCCC3)cs2)c1 [Example 383] | 78.3% | 10.1 |
| Cc1cc(C(=O)Nc2cc(Cl)cc(NS(C)(=O)=O)c2)cn1-c1ccc(N(C)C2CCOC2)cn1 (centres unmarked) [Example 269] | 76.9% | 4.4 |
| CCc1sc(C(=O)Nc2cc(Cl)cc(NS(C)(=O)=O)c2)cc1-c1ccc(F)cn1 [Example 589] | 69.7 | – |
| Cc1sc(C(=O)Nc2cc(Cl)cc(NS(C)(=O)=O)c2)cc1-c1ccc(N2CCC(F)(F)C2)cn1 [Example 485] | 66.5 | 19.1 |
| CCS(=O)(=O)Nc1cc(Cl)cc(NC(=O)c2cc(C)n(-c3ccc(N4CCOCC4)cn3)c2)c1 [Example 249] | 64.1% | 2.8 |
| CS(=O)(=O)Nc1cc(Cl)cc(NC(=O)c2cc(-c3ncccc3Cc3ncccn3)cs2)c1 [Example 384] | 75.5% | 39 |
| CCOc1cnc(-c2cc(C(=O)Nc3cc(Cl)cc(NS(C)(=O)=O)c3)cn2C)nc1 [Example 172] | 72.4% | 15.9 |
| CS(=O)(=O)Nc1cc(Cl)cc(NC(=O)c2cc(-c3ccc(F)cn3)n(CC(F)F)c2)c1 [Example 286] | 72.9% | 240 |
| CCOc1ccc(-n2cc(C(=O)Nc3cc(Cl)cc(NS(C)(=O)=O)c3)cc2C)nc1 [Example 437] | 84.2 | 15.5 |
| CS(=O)(=O)Nc1cc(Cl)cc(NC(=O)c2cc(C(=O)N3CCN(c4ccccc4)CC3)n(-c3ccccn3)c2)c1 [Example 654] | 72.7 | 21.6 |
| Cc1sc(C(=O)Nc2cc(Cl)cc(NS(C)(=O)=O)c2)cc1-c1ccc(F)cn1 [Example 35] | 75.7% | 3.9 |
| Cn1cc(C(=O)Nc2cc(Cl)cc(NS(C)(=O)=O)c2)cc1-c1ccc(N2CCN(C(=O)C3CC3)CC2)cn1 [Example 594] | 80.1 | 10.9 |
| CC1(C)CC(n2cc(C(=O)Nc3cc(Cl)cc(NS(C)(=O)=O)c3)cn2)CCN1 (centres unmarked) [Example 315] | 66.9% | 75.3 |
| Cn1cc(C(=O)Nc2cc(Cl)cc(NS(C)(=O)=O)c2)cc1-c1ccc(N2CC(S(C)(=O)=O)C2)cn1 [Example 519] | 71.2 | 8.1 |
| CS(=O)(=O)Nc1cc(Cl)cc(NC(=O)c2cc3cnccc3s2)c1 [Example 288] | 58.7% | 132 |
| Cc1sc(C(=O)Nc2cc(Cl)cc(NS(C)(=O)=O)c2)cc1-c1ncc(F)cc1N1CCN(S(C)(=O)=O)CC1 [Example 506] | 47.4 | 184 |
| CS(=O)(=O)Nc1cc(Cl)cc(NC(=O)c2cnn([C@H]3CCC[C@H]3Oc3ccccc3)c2)c1 (single isomer, unassigned) [Example 259] | 69.2% | – |
| Cc1sc(C(=O)Nc2cc(Cl)cc(NS(C)(=O)=O)c2)cc1-c1ccc(N2CC(C(F)(F)F)C2)cn1 [Example 496] | 71.9 | 19.5 |

| SMILES | DHX9 Biochemical Max Inhibition | IC50 [nM] |
| --- | --- | --- |
| COC(=O)N1CCN(c2ccc(-c3cc(C(=O)Nc4cc(Cl)cc(NS(C)(=O)=O)c4)cn3C)nc2)CC1 [Example 596] | 72.2 | 18.1 |
| Cn1cc(C(=O)Nc2cc(Cl)cc(NS(C)(=O)=O)c2)cc1-c1ncc(OC(C)(C)C)cn1 [Example 556] | 64.8 | 20.6 |
| CCn1cc(C(=O)Nc2cc(Cl)cc(NS(C)(=O)=O)c2)cc1-c1ccc(N2CCOCC2)cn1 [Example 274] | 72.1% | 32.2 |
| Cc1ccc(C(=O)Nc2cc(Br)cc(NS(C)(=O)=O)c2)cc1-n1cccn1 [Example 10] | 61% | 133 |
| CN(C)CCOc1cnc(-c2cc(C(=O)Nc3cc(Cl)cc(NS(C)(=O)=O)c3)cn2C)c(F)c1 [Example 646] | 66.6 | 7.9 |
| CS(=O)(=O)Nc1cc(Br)cc(NC(=O)c2cc(Cc3ccc[nH]3)cs2)c1 [Example 104, 4-((1H-pyrrol-2-yl)methyl)-N-(3-bromo-5-(methylsulfonamido)phenyl)-thiophene-2-carboxamide] | 68% | 61 |
| Cn1cc(C(=O)Nc2cc(Cl)cc(NS(C)(=O)=O)c2)cc1-c1ncc(OC2CN(CC(F)F)C2)cc1F [Example 614] | 70.4 | 14.6 |
| CS(=O)(=O)Nc1cc(Cl)cc(NC(=O)c2ccc3nccn3c2)c1 [Example 134] | 40% | 808 |
| Cc1cn2cc(C(=O)Nc3cc(Cl)cc(NS(C)(=O)=O)c3)cc2c(C)n1 [Example 322] | 65.6% | 215 |
| Cc1sc(C(=O)Nc2cc(Cl)cc(NS(C)(=O)=O)c2)cc1-c1ncc(N2CCC(C(F)(F)F)CC2)cc1F [Example 481] | 62.1 | 204 |
| CCOc1cnn(-c2cc(C(=O)Nc3cc(Cl)cc(NS(C)(=O)=O)c3)sc2C)c1 [Example 438] | 66.9 | 5.8 |
| CS(=O)(=O)Nc1cc(Br)cc(NC(=O)c2cc(-c3ncccn3)cs2)c1 [Example 25] | 61.3% | 5.6 |
| CS(=O)(=O)Nc1cc(Cl)cc(NC(=O)c2cc(-c3ncccc3Nc3ncccn3)cs2)c1 [Example 237] | 73.5% | 21 |
| COc1cc(F)cnc1-c1cc(C(=O)Nc2cc(Cl)cc(NS(C)(=O)=O)c2)sc1C [Example 351] | 80.6% | 15.5 |
| Cc1cc(C(=O)Nc2cc(Cl)cc(NS(C)(=O)=O)c2)cn1-c1ncc(OC(C)(C)C)cn1 [Example 664] | 68.8 | 87.7 |
| CS(=O)(=O)Nc1cc(Cl)cc(NC(=O)c2cc(-c3cccc(F)c3)cs2)c1 [Example 108] | 59.8% | 210 |
| CCOc1ccc(-c2csc(C(=O)Nc3cc(Cl)cc(NS(C)(=O)=O)c3)c2)nc1 [Example 339] | 71% | 10.7 |
| Cn1cc(C(=O)Nc2cc(Cl)cc(NS(C)(=O)=O)c2)cc1-c1ncccn1 [Example 82] | 69.4% | 9.2 |
